The values below come from PubChem BioAssay (NCI).

Holding throughout (experiment): NCI anticancer screen, dose series, 48 h
Assay [1] deals with LOX IMVI melanoma.
For assay [2], the system named is U251 CNS.
Assay [3] concerns HT29 colon.
Assay [4] relates to SNB-19 CNS.
Assay [5] deals with SNB-78 CNS.
In assay [6] the test system is SK-OV-3 ovarian.
For assay [7], the system named is COLO 205 colon.
In assay [8] the test system is SN12C renal.
For assay [9], the system named is ACHN renal.
Assay [10] deals with NCI-H23 lung.
Assay [11] deals with A549 NSCLC.
The test system of assay [12] is UACC-257 melanoma.
The subject of assay [13] is HCC-2998 colon.
Assay [14] deals with OVCAR-5 ovarian.
Assay [15] concerns SR leukemia.
Assay [16] relates to 786-0 renal.
Assay [17] deals with MDA-MB-435.
The test system of assay [18] is MDA-MB-231 breast.
In assay [19] the test system is PC-3 prostate.
Assay [20] relates to DU-145 prostate.

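A five-concentration, 48-hour dose response in 96-well plates underlies each endpoint, interpolated linearly between surrounding concentrations. Definition used: TGI = concentration required for complete inhibition of growth.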 Some results are limits rather than exact numbers.

As to `COc1ccc(/C(Cl)=C(\C=O)c2ccc(OC)c(OC)c2)cc1`, the TGI in [1], in assay [2], in assay [3], in [4], in assay [5] and in assay [6] was above 100 µM in each case. The TGI in assay [7], in assay [8], in [9] and in assay [10] was above 100 µM in each case.
`O=C1NP23(OCCO2)Oc2ccccc2C3(C(F)(F)F)O1` (stereo not given): the TGI in [1], in [2], in assay [3], in assay [11], in assay [4] and in assay [5] was above 100 µM each time. For the same compound, the TGI in [6], in assay [12], in [8], in [9] and in assay [10] was above 100 µM each time.
Regarding `COc1cc(N=Nc2cccc(S(=O)(=O)O)c2)ccc1N=Nc1ccc(/C=C/c2ccc(-n3on3-c3ccc(/C=C/c4ccc(N=Nc5ccc(N=Nc6cccc(S(=O)(=O)O)c6)cc5OC)cc4S(=O)(=O)O)c(S(=O)(=O)O)c3)cc2S(=O)(=O)O)c(S(=O)(=O)O)c1`, the TGI in assay [1], in [13], in assay [2], in assay [14], in [3] and in assay [11] was above 100 µM each time. In addition, the TGI in assay [4], in [5], in assay [6], in assay [7], in assay [12] and in [8] was above 100 µM each time. This compound also yielded a TGI in assay [10] above 100 µM.
For `CN1C(=O)CSC1=S`, the TGI in assay [1], in [2], in assay [14], in assay [15], in assay [3] and in assay [11] was above 100 µM each time. For the same compound, the TGI in [5], in assay [6], in assay [7], in assay [16], in [12] and in assay [8] was above 100 µM each time. The TGI in [9] and in assay [10] was above 100 µM each time.
On to `N#CC(OC1OC(COC2OC(CO)C(O)C(O)C2O)C(O)C(O)C1O)c1ccccc1` (stereo not given), for which the TGI in assay [1], in assay [13], in [2], in [14], in assay [3] and in assay [11] was above 225 µM in each case. Further, the TGI in [4], in [5], in [6], in [7], in [12] and in assay [8] was above 225 µM throughout. For the same compound, the TGI in assay [10] was above 225 µM.
As for `CC(C)(C)OC(=O)NC(Cc1ccc(OC(C)(C)C)cc1)C(=O)N[C@H]1CCC[C@H]1C(=O)NC(Cc1ccccc1)C(=O)N1CCCC1C(N)=O` (stereo not given in full), the TGI in [1], in assay [13], in assay [2], in assay [14], in [17] and in assay [15] was above 100 µM each time. The TGI in assay [3], in assay [18], in assay [11], in assay [4], in [6] and in assay [7] was above 100 µM in each case. The TGI in assay [16], in assay [12], in assay [8], in assay [9], in assay [19] and in [20] was above 100 µM throughout. Further, in assay [10], the TGI was above 100 µM.
